Columns and labels:
[1] = system: Arabidopsis seedlings; settings: for effect on number and length of lateral roots: MS with 6 mM N containing 0.15% butanol, OE, WT and KO seedlings, measured 6 days after transfer
Experimental: (A) Four-day-old seedlings were transferred to Murashige and Skoog (MS) containing 6 mM N for 12 days. […] Root length and number were measured 6 days after transfer. Values are means±SD (n=30).
To test N response on plates, surface-sterilized seeds were germinated in MS (1×) agar plates supplement with 3% sucrose for 4 days and then were transferred to modified MS agar plates containing 0.1, 0.6, 2, 6, 60 mM N, NO3^−:NH4^−=2:1). […] Seedlings were grown on plates in a vertical orientation in a growth chamber under the conditions of 16-h light/8-h dark, 23/21° C., cool fluorescent white light (200 mmol m^−2 s^−1). Alternatively, seeds were also directly germinated in agar plates with the same conditions as described above.

[2] = system: S6K; assay: S6K binding to lipids immobilized on a nitrocellulose filter; set-up: species or system Arabidopsis; settings: 10 mg lipid spotted; leaf proteins 1.2 mg/ml; anti-human p70 S6K antibody
Experimental: FIG. 5 depicts S6K levels under different N levels. (A) and (B) S6K protein levels detected by immunoblotting with anti-p70 S6K and anti-phospho-p70 S6K (Thr389) antibodies, respectively. Four-day-old seedlings were transferred to MS plates with the indicated N levels for 10 days. The same amount of proteins ([…]/lane) was separated by 10% SDS-PAGE and transferred to a nitrocellulose membrane. (C) S6K binding to PA immobilized on filter. Lipid (10 mg) was spotted on nitrocellulose filter, and incubated with leaf proteins (1.2 mg/ml), followed by blotting with anti-human p70 S6K antibody. (D) S6K binding to liposomes composed of PA (PA:PC=1:2), PC, or PI only (650 nmol of total lipids). (E) Total S6K, but not phosphorylated S6K binding to PA:PC liposomes. Proteins were extracted from WT and PLDε-altered seedlings. Bound proteins were separated by SDS-PAGE and detected by blotting with anti-human p70 S6K antibody or anti-human p389 p70 S6K antibody.
PLDε: PA-Protein Binding by Blotting and Liposomal Assays. S6K binding to lipids immobilized on a nitrocellulose filter was performed as described (Zhang, W., Qin, C., Zhao, J. & Wang, X. (2004) Proc. Natl. Acad. Sci. USA. 101, 9508-9513; Stevenson, J. M., Perera, I. Y. & Boss, W. F. (1998) J Biol Chem. 273, 22761-22767) with minor modifications. […] Protein binding to liposome was detected by immunoblotting as described above.

Row | S6K binding to lipid immobilized on filter [2] | Molecule | effect on number and length of lateral roots [1] | effect on biomass accumulation ([1]; 1-butanol treatment, data not shown)
1 | – | CCC(C)O (stereo not shown) [2-butanol] | no growth inhibitory effect | –
2 | – | CCCCO [1-Butanol, 1-butanol] | inhibited | inhibited
3 | bound | phosphatidic acid [PA] | – | –
